Here are results for one compound from paper PMC5268383, “Inhibition of STAT3 by Anticancer Drug Bendamustine” (PLoS ONE, 2017).

The target of this test is T1, Grb2 SH2 (Homo sapiens, UniProt P62993).
T1 construct: Avi-tag (N); 6His-tag (N)
Description: AlphaScreen SH2 binding assay, Grb2. How it is done:
AlphaScreen assays were performed in a final reaction volume of 25 μL of the assay buffer, containing 10 mM HEPES-NaOH (pH 7.4), 50 mM NaCl, 1 mM EDTA (pH 8.0), 0.1% NP-40, and 10 ng/mL BSA in a 96-well microtiter plate at 25°C. The labeled Phospho-Tyr (pTyr) peptide probe was 5-carboxyfluorescein (FITC)-GpYLPQTV for STAT3, FITC-GpYDKPHVL for STAT1, and FITC-PSpYVNVQN for Grb2. A DMSO solution of BENDA was incubated with 50 nM of each SH2-containing protein for 15 min, 50 nM of the corresponding FITC-pTyr peptide was added, and the mixture was incubated for 90 min. Streptavidin-coated donor beads and anti-FITC acceptor beads were added and incubated for 90 min before the signals were measured with an Envision Xcite plate reader (PerkinElmer Life Sciences, Waltham, MA, USA).

pIC50: −log10 of the molar value. Bounds are passed on as bounds.

T1 sequence (P62993 whole entry): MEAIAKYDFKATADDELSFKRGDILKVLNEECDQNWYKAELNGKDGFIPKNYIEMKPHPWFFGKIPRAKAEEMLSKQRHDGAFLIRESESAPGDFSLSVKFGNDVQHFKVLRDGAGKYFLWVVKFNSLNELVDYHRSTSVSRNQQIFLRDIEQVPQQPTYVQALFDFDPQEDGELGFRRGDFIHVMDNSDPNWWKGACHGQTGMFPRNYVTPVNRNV

`Cn1c(CCCC(=O)O)nc2cc(N(CCCl)CCCl)ccc21` [BENDA, 4-{5-[bis(2-chloroethyl)amino]-1-methyl-2-benzimidazolyl} butyric acid]: the negative-log IC50 (pIC50) is less than 4.00.

In general, pIC50 refers to the IC50 on a negative log10 scale, so that one unit is a factor of ten. A lower pIC50 goes with a large IC50.
